Values of other authors, collected in patent US12544371B2, “Methods and compositions for treating acute lung injury and acute respiratory distress syndrome” (CalciMedica, Inc., priority 2020, dated 2026).
Entries after “also recorded” stand apart in the source; their conditions may differ.

Legend:
[1] = cited from earlier work
[2] = Gandhirajan et al. 2013; cited from earlier work
[3] = mice, cited from earlier work

Compound: Cc1nnsc1C(=O)Nc1ccc(-n2nc(C(F)(F)F)cc2C(F)(F)F)cc1 [BTP2, N-(4-(3,5-bis(trifluoromethyl)-1H-pyrazol-1-yl)phenyl)-4-methyl-1,2,3-thiadiazole-5-carboxamide]
- endothelial lung dysfunction and lung inflammation ([1]; rat ventilator-induced lung injury): suppress
- ventilator-induced lung injury ([1]; rats): attenuate
- infiltration of neutrophils into inflamed lung tissue [2]: reduced
- inflammatory cytokines associated with lung inflammation [2]: down-regulated
- vascular permeability in lungs [2]: decreased
- endothelial cell Ca2+ flux ([3]; delivered 2 hours after systemic endotoxin): striking reduction
- measures of lung injury (endotoxin / lipopolysaccharide-induced) [3]: sharp decrease; also recorded: attenuate
